Each block holds one compound with its values, some of them ahead of it.
Experiments:
[1] = target: T1, Estrogen receptor (Rattus norvegicus) (UniProt P06211+Q62986)
Description: Oral estrogenic activity in uterotropic assay in rats at 400-4000ng dose

[2] = target: T1, Estrogen receptor (Rattus norvegicus); experiment: Oral estrogenic activity in uterotropic assay in rats at 20-200 ng dose; format: functional
[3] = target: T1, Estrogen receptor (Rattus norvegicus); experiment: Oral estrogenic activity in uterotropic assay in rats at 40-1000 ng dose; format: functional
[4] = target: T1, Estrogen receptor (Rattus norvegicus); remark: listed apart in the source
Description: Oral estrogenic activity in uterotropic assay in rats at 100-1000 ng dose

[5] = target: T1, Estrogen receptor (Rattus norvegicus); experiment: Oral estrogenic activity in uterotropic assay in rats at 40-400 ng dose; format: functional

SMILES: CC12CCC3c4ccc(O)cc4CCC3C1OC[C@@H]2O (stereo not given in full)
Weight [2]: -7.8 mg

SMILES: C#C[C@]1(O)COC2C3CCc4cc(OC)ccc4C3CCC21C (stereo not given in full)
Weight [4]: -23.9 mg

Now from value to compound:

Weight [1]: -120 mg
SMILES: C[C@]12CC[C@@H]3c4ccc(O)cc4CC[C@H]3[C@@H]1CCC2=O

Weight [3]: -52.2 mg
SMILES: CC12CCC3c4ccc(OC5CCCC5)cc4CCC3C1OCC2=O (stereo not given)

Weight [5]: -32.1 mg
SMILES: CC12CCC3c4ccc(O)cc4CCC3C1OCC2=O (stereo not given)

— ChEMBL document CHEMBL1121575, “Synthesis and biological activity of some 15-oxaestranes” (J Med Chem, 1980)
